In US5434295A (priority 1994, dated 1995):

Tests used:
cannabimimetic activity = conditions: cited from earlier work
Rat brain NMDA receptors = assay: Blockade of NMDA response in Xenopus oocytes injected with rat brain RNA; format: biochemical
From the text: Blockade of NMDA-induced voltage changes in Xenopus oocytes: Frog oocytes can be injected with genetic material from various species and organs, resulting in the expression of the various molecules encoded by this material in the oocyte. Injection of rat brain RNA provides active NMDA receptors on the ooctye surface. Application of NMDA results in changes in the electrical activity recorded from the oocytes. Various NMDA antagonists block the NMDA-induced changes in electrical activity and their potency and dose dependence in this system indicate their potency and mode of action as NMDA antagonists.
The oocyte is the most widely used system for studying the molecular, biophysical and pharmacological properties of expressed voltage- or transmitter-operated ion channels. This giant cell offers several advantages for this type of studies. It can be readily used for two-electrode voltage clamp studies, translates injected mRNA from different sources and functionally expresses the translated proteins, and it is also readily amenable for intracellular micron injections. Importantly, the recordings of neurotransmitter- or voltage-induced currents in a single oocyte are extremely stable and can performed repeatedly for 2-3 hours; this allows the performance of a full dose-response relation in single oocytes.
Rat brain NMDA receptors were expressed in Xenopus oocytes injected with total rat brain RNA. Dascal and Lotan. The conditions for injection culture and electrical recording from oocytes were as described by Dascal and Lotan (in: Methods in Molecular Biology, Longstaff and Revest, eds. Vol. 13, Chapter 13, Humana Press, N.J., 1992).
Briefly, female Xenopus were anesthetized by immersion in water containing 0.15% tricaine methanesulfonate and a small incision was made in the lower abdomen. Ovary fragments were removed into ND-96.
The oocytes were defolliculated by the collagenase treatment in order to remove the follicle cell layer. Defolliculated oocytes were injected with total rat brain RNA and incubated for 2-4 days at 22° C. in sterile NDE-96 solution. ND-96 solution contains (in mM): NaCl - 96, KCl - 2, CaCl2 - 1.8, Hepes - 5 (pH=7.4-7.6). NDE-96 contains in addition, 2.5 mM sodium pyruvate, 100 unit/ml penicillin, 100 μg/ml streptomycin. A single oocyte was placed in a 1 ml bath constantly superfused with ND-96 solution at room temperature. The cell was impaled with two microelectrodes and held at membrane potential of -60 mV using voltage clamp circuit.
RNA was extracted from the brain of 14-day old rat brain. Each oocyte was injected with 50 nl total RNA (4-8 mg/ml in water, stored at -80° C. in […] aliquots).
NMDA receptors were activated by application of NMDA with glycine in Mg-free ND-96 solution. It was shown previously and also observed in this study that the entry of calcium ions through the NMDA receptor-channel evokes a Ca-dependent Cl^- current which appeared as an early inward current peak preceding and overlapping the actual NMDA response and hindering a quantitative pharmacological study of NMDA antagonists. Experimental conditions were therefore worked out aimed at eliminating the Cl^- current. The best protocol employed the use of Ca-free, Ba-containing solution, avoiding repetitive application of antagonists, as well as other conditions including optimal perfusion rate and optimal intervals between repetitive NMDA applications.
Several NMDA receptor blockers were tested. These compounds have […] and have to be dissolved in 100% dimethyl sulfoxide (DMSO) and diluted for use in ND-96 that contained 1% DMSO. Therefore, the effect of 1% DMSO on the response to 10^-4 M NMDA and 5×10^-6 M glycine was examined. DMSO had no effect on NMDA response in three different cells.
Eight putative NMDA antagonists of the HU group, including 270, 271 and 259 were tested for anti-NMDA activity at a glutamate receptor. […]

[1] = system: intraocular pressure (IOP); assay: Ocular hypotensive activity (intraocular pressure) in albino rabbits; format: in vivo, albino rabbit; conditions: for Max ΔIOP: ** drug vs. vehicle P < 0.01
Procedure: Bicyclic compounds of the present invention were also tested for IOP lowering effects.
Sci., 82, 1069-1079 (1993).
The phospholipids and HU-259 were dissolved in the stabilized oily phase. The other excipients were dissolved in the aqueous phase. Both phases were heated separately to 70° C. and dispersed by a magnetic stirrer. Emulsification was completed using a "high speed mixer" for 5 min at 85° C. The resulting emulsion was cooled rapidly below 20° C. and homogenized using a two-stage homogenizing valve assembly (Gaulin Homogenizer, APV Gaulin, Hilversum, The Netherlands) for 5 min. All the manufacturing procedures were carried out under aseptic conditions and a nitrogen atmosphere. The pH was adjusted to 7.4 using a sodium hydroxide solution (10%). The final fine emulsion was filtered to achieve sterility and stored in ampoules. A typical formulation (%, w/w) consisted of the following: HU-259, 0.2%; oily phase, 20.0%; purified fractionated egg phospholipids, 1.2%; nonionic emulsifier, 2%; glycerin, 2.25%; α-tocopherol, 0.02%; methyl and butyl p-hydroxy- benzoic ester, 0.3 and 0.075%, respectively; and water for injection, to 100.0 g. The control emulsion vehicle was prepared using identical experimental conditions but without drug.
IOP was measured by using a pneumatonometer (Digilab T30). Pressure readings were calibrated for verification every 6 h. One drop (50 μl) of local anesthetic (Benoxinate HCl, 0.4% Fischer [Isr] diluted 1:3 with sterile saline) was instilled into each eye prior to IOP measurements.

[2] = target: MK-801 sites located at the NMDA receptor ion channel; assay: Inhibition of [3H]MK-801 binding to rat forebrain membranes
From the text: Binding to the NMDA receptor linked channel: Non competitive antagonists of NMDA, the primary example of which is the compound MK-801, bind to a site within the NMDA receptor channel thus preventing the activation of the receptor-channel complex and the consequent neurotoxicity. The ability of various compounds to compete with the binding of tritium labeled MK-801 to brain membranes is considered a measure of their potency as NMDA non-competitive antagonists.
The association of pinene derivatives with acetylcholine-muscarinic receptor and with MK-801 sites located at the NMDA receptor ion channel.
Inhibition of ^3 [H]MK-801 binding to rat forebrain membranes by the test HU-211 compounds was carried out as described for HU-211 in Eshhar et al., NeuroReport 5, No. 3, 1993) (Methods section). The test compounds were solubilized in a mixture of ethanol:Emulfor:water (20:3:57).

GABA receptors = assay: Effect on GABA responses in oocytes; format: biochemical, rat
AMPA/kainate receptors = assay: Effect on kainate responses in oocytes; format: biochemical, rat
[3] = system: voltage-dependent P-type calcium channels; assay: Inhibition of voltage-dependent P-type calcium channels expressed in oocytes; format: biochemical, rat
cannabinoid receptors = conditions: Devane et al. 1992; cited from earlier work
[4] = system: NMDA-induced tremor, seizures and lethality in mice; conditions: Feigenbaum et al. 1989; cited from earlier work
[5] = system: rat brain cortical membrane preparations; conditions: cited from earlier work
[6] = system: NMDA receptor linked ion channel; conditions: Nadler et al. 1993; cited from earlier work
[7] = system: closed head injury, a model of head trauma; conditions: Shohami et al. 1993; cited from earlier work
[8] = system: CA1 hippocampal region in gerbils; conditions: injected after the ischemic insult; Bar-Joseph et al. 1993; cited from earlier work
[9] = system: intraocular pressure (IOP); conditions: in vivo; cited from earlier work
NMDA toxicity in mice = assay: Prevention of NMDA neurotoxicity in mice (neurological scores); format: in vivo, mice (Balb/C); conditions: for maximum improvement of neurological scores: NMDA 60 mg/kg s.c., i.p. or i.v. pretreatment; for neurological scores/symptoms after NMDA toxicity: pretreated mice
From the text: Blockade of NMDA toxicity in mice: Subcutaneous injection of NMDA in mice results in a dose-dependent increase in the number, severity and duration of several neurological symptoms, culminating in death at the higher dose range. The symptoms include tail flicks, circling, tremor and convulsions. The ability of various compounds, when administered to mice prior to NMDA, to reduce the number and severity of these symptoms is a considered a measure of their potency in preventing NMDA behavioral toxicity in vivo.
Test drugs were administered intraperitoneally at the stipulated doses in a solution of MCT oil. Each point represents the mean scores of eight mice treated with the drug compared to the same number of control animals receiving the vehicle alone.
Test compounds were administered at a standard dose of 10 mg/kg either intraperitoneally (in MCT oil) or intravenously (in a submicronized emulsion).
(§1) Bicyclic compounds of the present invention were tested for their ability to block NMDA toxicity in mice. Balb/C mice received NMDA by subcutaneous injection at a dose of 60 mg/kg which was determined to be the LD20 dose of this substance. Thirty minutes prior to injection of the neurotoxin the animals received either (a) an intravenous injection of the test drug formulated in submicronized emulsion as described in Example 11); (b) an intraperitoneal injection of the test drug dissolved in MCT oil; (c) or the appropriate vehicle alone (control groups). The improvement rate afforded by the test drug was defined as the difference between scores of animals receiving the formulated drug and those receiving the vehicle alone. The doses tested for HU-254, HU-259 and HU-260 ranged from 5 to 30 mg/kg.
At least 6-8 mice were included per test group. The materials were tested in a masked study to preclude bias of the observer of clinical symptoms.
The behavioral scoring method (tabulated above) was used as the basic quantitative procedure for evaluating the level of NMDA or kainic acid neurotoxicity in mice. The neurological clinical status of each animal was calculated by totalling the scores of all signs that were evident throughout the study. Duration of symptoms was also taken into account.
If duration of a neurological system is up to 30 seconds, the score is s-1. Duration between 0.5-3.0 mins, the score is s. Duration longer than 3 mins, the score is s+1.

[10] = system: acetylcholine-muscarinic receptor; format: binding, rat; conditions: 100 μM analogue
Balb/C mice = assay: Lethality of subcutaneous NMDA in mice; format: in vivo; conditions: subcutaneous injection
Procedure: as §1

For `CCCCCCC(C)(C)c1ccc([C@@H]2C[C@H](O)CC[C@H]2CCCO)c(O)c1` [CP-55940], the cannabimimetic activity (cannabimimetic activity) is given as “found to produce cannabimimetic effects”.
In the case of `CCCCCCC(C)(C)c1cc(O)c2c(c1)OC(C)(C)[C@@H]1CC=C(CO)C[C@@H]21` [HU-210, 1,1 dimethylheptyl (DMH) homolog of [3R,4R]-7-hydroxy Δ^6 THC, reference compound], the “% inhibition of NMDA” value (Rat brain NMDA receptors; 10 μM) is given as 0%, the “inhibitory effects on NMDA response” value (Rat brain NMDA receptors; concentrations up to 10 μM) is given as “did not have any inhibitory effects” and the cannabimimetic activity (cannabimimetic activity) is given as “two orders of magnitude higher than the natural Δ^1 THC”.
In the case of `CCCCCCC(C)(C)c1cc(O)c2c(c1)OC(C)(C)[C@H]1CC=C(CO)C[C@H]21` [HU-211, 7-hydroxy-Δ^6-tetrahydrocannabinol 1,1-dimethylheptyl, reference compound], the “AUC (from instillation of treatment until return to baseline IOP)” value ([1]; contralateral eye) is reported as -4.9 ± 7.0 mmHg × hrs, the “Max ΔIOP” value ([1]; contralateral eye) is reported as -2.0 ± 1.1 mmHg and the “AUC (from instillation of treatment until return to baseline IOP)” value ([1]; treated eye) is reported as -9.5 ± 6.0 mmHg × hrs. For the same compound, the “Max ΔIOP” value ([1]; treated eye, single dose 0.2% emulsion) was -2.9 ± 0.7 mmHg, the “% inhibition of NMDA” value (Rat brain NMDA receptors; 1 μM) was 32% and the “% inhibition of NMDA” value (Rat brain NMDA receptors; 10 μM) was 47%. For the same compound, the “mode of NMDA antagonism” value (Rat brain NMDA receptors; Lineweaver-Burke analysis) was “non-competitive NMDA antagonists”, the “concentration at which inhibitory activity was first apparent” value (Rat brain NMDA receptors; NMDA response) was 10 nM and the Ki ([2]; [3H]MK801 binding, rat forebrain membranes, representative experiment in triplicate (HU259), read-out: inhibition constant (K1)) was 11.3 µM. The “effect on GABA responses” value (GABA receptors) was “no effect”, the “effect on kainate responses” value (AMPA/kainate receptors) was “no effect” and the “inhibition of activity of voltage-dependent P-type calcium channels” value [3] was “did not inhibit”. For the same compound, the “affinity to the cannabinoid receptors” value (cannabinoid receptors) was “very low affinity”, the cannabimimetic activity (cannabimimetic activity) was “inactive as a cannabimimetic” and the “block of NMDA-induced tremor, seizures and lethality” value [4] was “block NMDA-induced tremor, seizures and lethality in mice”. For the same compound, the “increase in binding of [3H]TCP induced by polyamines, glutamate or glycine” value [5] was “blocked the increase in binding”, the “NMDA induced uptake of 45Ca++ ions” value [6] was “block the NMDA induced uptake” and the “extent of edema formation and overall neurological damage” value [7] was “significantly reduced”. The “neuronal cell damage in CA1 hippocampal region” value [8] was “prevent neuronal cell damage” and the “lowering of intraocular pressure” value [9] was “lowering of intraocular pressure (IOP)”.
For `CCCCCCC(C)(C)c1cc(OC(C)=O)c([C@H]2C=C(COC(C)=O)[C@H]3C[C@@H]2C3(C)C)c(OC(C)=O)c1` [HU-254], the “maximum improvement of neurological scores” value (NMDA toxicity in mice) was 30-40%, the “maximum improvement rate on the neurological scores” value (NMDA toxicity in mice; i.p. dose of 20 mg/kg) was 25% and the “effect of route of administration on performance” value (NMDA toxicity in mice; i.v. vs i.p.) was “significantly enhanced by i.v. administration”. The “neurological scores/symptoms after NMDA toxicity” value (NMDA toxicity in mice) was “improvement in neurological scores”, the “% inhibition of tritiated ligand binding to membranes, 3[H]QNB” value [10] was 96.1% and the “% inhibition of tritiated ligand binding to membranes, 3[H]-MK-801” value ([2]; 100 μM analogue) was 5.3%.
In the case of `CCCCCCC(C)(C)c1cc(OC(C)=O)c([C@H]2C=C(CO)[C@H]3C[C@@H]2C3(C)C)c(OC(C)=O)c1` [HU-260], the “maximum improvement of neurological scores” value (NMDA toxicity in mice) is reported as 30-40% and the “neurological scores/symptoms after NMDA toxicity” value (NMDA toxicity in mice) is reported as “improvement in neurological scores”.
`CN[C@H](CC(=O)O)C(=O)O` [NMDA, N-methyl-D-aspartate] showed an LD20 dose (Balb/C mice) of 60 mg/kg.
In the case of `COc1ccc(C(=O)c2c(C)n(CCN3CCOCC3)c3ccccc23)cc1` [pravadoline], the cannabimimetic activity (cannabimimetic activity) is given as “found to produce cannabimimetic effects”.
